Our source for the IC50 values is patent US5981576A, “(Methylsulfonyl)phenyl-2-(5H)-furanones as COX-2 inhibitors” (Merck Frosst Canada, Inc., priority 1998, dated 1999).

COX-1, sequence (P23219 24-599): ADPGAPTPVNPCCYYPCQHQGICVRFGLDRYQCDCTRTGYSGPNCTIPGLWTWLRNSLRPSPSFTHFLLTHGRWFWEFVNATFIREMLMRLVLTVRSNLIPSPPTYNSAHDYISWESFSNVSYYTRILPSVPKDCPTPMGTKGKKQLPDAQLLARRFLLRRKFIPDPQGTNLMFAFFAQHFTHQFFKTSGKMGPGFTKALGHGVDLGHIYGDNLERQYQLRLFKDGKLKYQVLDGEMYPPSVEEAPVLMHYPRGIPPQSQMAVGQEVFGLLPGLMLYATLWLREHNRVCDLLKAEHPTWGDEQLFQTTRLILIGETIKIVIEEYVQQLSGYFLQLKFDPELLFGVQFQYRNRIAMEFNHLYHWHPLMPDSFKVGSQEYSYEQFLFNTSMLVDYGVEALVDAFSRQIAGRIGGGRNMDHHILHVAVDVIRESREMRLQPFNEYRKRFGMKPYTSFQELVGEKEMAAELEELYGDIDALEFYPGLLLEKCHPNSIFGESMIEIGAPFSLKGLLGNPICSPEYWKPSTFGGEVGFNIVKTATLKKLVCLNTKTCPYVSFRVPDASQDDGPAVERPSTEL

The first assay deals with T1, COX-2 (Homo sapiens, UniProt P35354).
T1 sequence (P35354 18-604): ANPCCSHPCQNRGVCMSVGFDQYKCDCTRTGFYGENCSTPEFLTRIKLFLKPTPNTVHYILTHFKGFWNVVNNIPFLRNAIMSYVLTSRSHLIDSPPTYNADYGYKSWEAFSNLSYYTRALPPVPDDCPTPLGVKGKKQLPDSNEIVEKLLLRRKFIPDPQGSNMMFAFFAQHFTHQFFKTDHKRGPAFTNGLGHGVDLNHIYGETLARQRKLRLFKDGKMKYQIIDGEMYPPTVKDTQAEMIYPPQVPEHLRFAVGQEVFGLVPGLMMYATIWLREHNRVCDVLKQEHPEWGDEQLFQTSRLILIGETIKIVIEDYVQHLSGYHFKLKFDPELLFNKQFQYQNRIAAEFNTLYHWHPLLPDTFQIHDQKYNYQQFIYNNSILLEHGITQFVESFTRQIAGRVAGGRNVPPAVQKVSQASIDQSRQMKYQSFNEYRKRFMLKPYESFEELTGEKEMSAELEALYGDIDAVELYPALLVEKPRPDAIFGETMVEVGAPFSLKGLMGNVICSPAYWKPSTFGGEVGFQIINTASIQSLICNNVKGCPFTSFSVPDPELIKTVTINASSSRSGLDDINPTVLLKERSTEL
Put plainly: cell-based. Particulars: Table IV; CHO[hCOX-2] cells, 10 μM AA. The procedure: Chinese hamster ovary (CHO) cell lines which have been stably transfected with an eukaryotic expression vector pCDNAIII containing either the human COX-1 or COX-2 cDNA's are used for the assay. These cell lines are referred to as CHO [hCOX-1] and CHO [hCOX-2], respectively. […] Cells (0.3×10^6 cells in 200 μl) are preincubated with 3 μl of the test drug or DMSO vehicle for 15 min at 37° C. […] Cells are then challenged in the presence or absence of drug with the AA/HBSS solution to yield a final concentration of 0.5 μM AA in the CHO[hCOX-1] assay and a final concentration of 10 μM AA in the CHO[hCOX-2] assay. […] The samples are centrifuged at 300×g at 4° C. for 10 min, and an aliquot of the clarified supernatant is appropriately diluted for the determination of PGE2 levels using an enzyme-linked immunoassay for PGE2 (Correlate PGE2 enzyme immunoassay kit, Assay Designs, Inc.). Cyclooxygenase activity in the absence of test compounds is determined as the difference in PGE2 levels of cells challenged with arachidonic acid versus the PGE2 levels in cells mock-challenged with ethanol vehicle. Inhibition of PGE2 synthesis by test compounds is calculated as a percentage of the activity in the presence of drug versus the activity in the positive control samples.
Consider `CC1(C)OC(=O)C(Oc2cccc(C(F)(F)F)c2)=C1c1ccc(S(C)(=O)=O)cc1` [Example 110], for which the IC50 (commonly the concentration that inhibits the measured activity by half) was greater than 5 µM.
The same measure, in the same setting: the result for `Cc1ncc(OC2=C(c3ccc(S(C)(=O)=O)cc3)C(C)(C)OC2=O)cc1Br` [Example 137] reads 0.55 µM.
`CC1(C)OC(=O)C(Oc2ccc(C(C)(C)O)cc2)=C1c1ccc(S(C)(=O)=O)cc1` [Example 191] gave an IC50 of 0.98 µM.

For the next assay, the target named is T1, COX-2. The experiment in a line: cell-based. The conditions noted are these: Table IV; human whole blood, LPS-induced PGE2; read-out: COX-2 (IC50, μM) HWB. The text has this: As well, platelets in whole blood contain a large amount of the COX-1 enzyme. Immediately following blood clotting, platelets are activated through a thrombin-mediated mechanism. […] Therefore, the degree of selectivity by the test compound can be determined by measuring the levels of PGE2 after LPS induction (COX-2) and TxB2 following blood clotting (COX-1) in the same assay.
A. COX-2 (LPS-induced PGF, production)
Fresh blood is collected in heparinized tubes by venipuncture from both male and female volunteers. The subjects have no apparent inflammatory conditions and have not taken any NSAIDs for at least 7 days prior to blood collection. Plasma is immediately obtained from a 2 mL blood aliquot to use as blank (basal levels of PGE2).
For `C[C@]1(CC(F)(F)F)OC(=O)C(Oc2ccc(Cl)cn2)=C1c1ccc(S(C)(=O)=O)cc1` [Example 130, (5R)-3-(5-Chloro-2-pyridyloxy)-5-methyl-4-(4-methylsulfonyl)phenyl-5-(2,2,2-trifluoroethyl)-5H-furan-2-one], the IC50 is less than 0.41 µM.
The same measure, in the same setting: as for `Cc1ncc(OC2=C(c3ccc(S(C)(=O)=O)cc3)C(C)(C)OC2=O)cc1Br` [Example 137], the figure is 5.2 µM; as for `CC1(COC2=C(c3ccc(S(C)(=O)=O)cc3)C(C)(C)OC2=O)CC1` [Example 173], less than 0.41 µM.
On the same count and under the same terms, the result for `CC1(C)OC(=O)C(Oc2ccc(C(C)(C)O)cc2)=C1c1ccc(S(C)(=O)=O)cc1` [Example 191] reads 4.3 µM.

The next assay deals with COX-1 (Homo sapiens, UniProt P23219). Put plainly: biochemical. The conditions noted are these: Table III; U937. It counts as biochemical. The procedure:
Compounds are tested as inhibitors of cyclooxygenase activity in whole cell cyclooxygenase assays. Both of these assays measure prostaglandin E2 synthesis in response to arachidonic acid, using a radioimmunoassay. Cells used for these assays are human osteosarcoma 143 cells (which specifically express COX-2) and human U-937 cells (which specifically express COX-1). In these assays, 100% activity is defined as the difference between prostaglandin E2 synthesis in the absence and presence of arachidonate.
U 937 cells are pelleted by centrifugation at 500×g for 5 min and washed once with phosphate-buffered saline and repelleted. Cells are resuspended in homogenization buffer consisting of 0.1 M Tris-HCl, pH 7.4, 10 mM EDTA, 2 μg/ml leupeptin, 2 μg/ml soybean trypsin inhibitor, 2 μg/ml aprotinin and 1 mM phenyl methyl sulfonyl fluoride. The cell suspension is sonicated 4 times for 10 sec and is centrifuged at 10,000×g for 10 min at 4° C. The supernatant is centrifuged at 100,000×g for 1 hr at 4 ° C. The 100,000×g microsomal pellet is resuspended in 0.1 M Tris-HCl, pH 7.4, 10 mM EDTA to approximately 7 mg protein/ml and stored at -80° C.
Microsomal preparations are thawed immediately prior to use, subjected to a brief sonication, and then diluted to a protein concentration of 125 μg/ml in 0.1 M Tris-HCl buffer, pH 7.4 containing 10 mM EDTA, 0.5 mM phenol, 1 mM reduced glutathione and 1 μM hematin. Assays are performed in duplicate in a final volume of 250 μl. Initially, 5 μd of DMSO vehicle or drug in DMSO are added to 20 μl of 0.1 M Tris-HCl buffer, pH 7.4 containing 10 mM EDTA in wells of a 96-deepwell polypropylene titre plate. 200 μl of the microsomal preparation are then added and pre-incubated for 15 min at room temperature before addition of 25 μl of […] in 0.1 M Tris-HCl and 10 mM EDTA, pH 7.4. […] Cyclooxygenase activity is defined as the difference between PGE2 levels in samples incubated in the presence of arachidonic acid and ethanol vehicle.
`CC1(C)OC(=O)C(Oc2cccc(F)c2)=C1c1ccc(S(C)(=O)=O)cc1` [Example 2, 3-(3-Fluorophenoxy)-5,5-dimethyl-4-(4-(methylsulfonyl)phenyl)-5H-furan-2-one]: it took 3 µM to reach half-maximal inhibition (IC50).
The same measure, in the same setting: as for `CC1(C)OC(=O)C(Oc2ccc(F)cc2F)=C1c1ccc(S(C)(=O)=O)cc1` [Example 5, 3-(2,4-Difluorophenoxy)-5,5-dimethyl-4-(4-(methylsulfonyl)phenyl)-5H-furan-2-one], the figure is 0.3 µM; as for `CC1(C)OC(=O)C(Oc2ccc(Cl)cc2)=C1c1ccc(S(C)(=O)=O)cc1` [Example 6, 3-(4-Chlorophenoxy)-5,5-dimethyl-4-(4-(methylsulfonyl)phenyl)-5H-furan-2-one], 0.4 µM.
Regarding `CC1(C)OC(=O)C(Oc2ccc(Cl)c(Cl)c2)=C1c1ccc(S(C)(=O)=O)cc1` [Example 7, 3-(3,4-Dichlorophenoxy)-5,5-dimethyl-4-(4-(methylsulfonyl)phenyl)-5H-furan-2-one], half-maximal inhibition (IC50) required 1 µM.
Still for that read-out and setting: the result for `CC1(C)OC(=O)C(Oc2ccc(F)cc2)=C1c1ccc(S(C)(=O)=O)cc1` [Example 8, 3-(4-Fluorophenoxy)-5,5-dimethyl-4-(4-(methylsulfonyl)phenyl)-5H-furan-2-one] reads 0.3 µM.
The molecule `CC1(C)OC(=O)C(Sc2ccc(F)cc2)=C1c1ccc(S(C)(=O)=O)cc1` [Example 9, 3-(4-Fluorophenylthio)-5,5-dimethyl-4-(4-(methylsulfonyl)phenyl)-5H-furan-2-one] showed a half-maximal inhibitory concentration (IC50) greater than 10 µM.
The same measure, in the same setting: as for `CC1(C)OC(=O)C(Sc2cc(F)cc(F)c2)=C1c1ccc(S(C)(=O)=O)cc1` [Example 10, 3-(3,5-Difluorophenylthio)-5,5-dimethyl-4-(4-(methylsulfonyl)phenyl)-5H-furan-2-one], the figure is greater than 10 µM; as for `CC1(C)OC(=O)C(Nc2ccccc2)=C1c1ccc(S(C)(=O)=O)cc1` [Example 12, 3-(N-Phenylamino)-5,5-dimethyl-4-(4-(methylsulfonyl)phenyl)-5H-furan-2-one], greater than 10 µM.
Still for that read-out and setting: as for `CN(C1=C(c2ccc(S(C)(=O)=O)cc2)C(C)(C)OC1=O)c1ccccc1` [Example 13, 3-(N-Methyl-N-phenylamino)-5,5-dimethyl-4-(4-(methylsulfonyl)phenyl)-5H-furan-2-one], the figure is greater than 10 µM.
Turning to `CC1(C)OC(=O)C(Cc2ccccc2)=C1c1ccc(S(C)(=O)=O)cc1` [Example 16, 3-Benzyl-5,5-dimethyl-4-(4-(methylsulfonyl)phenyl)-5H-furan-2-one], the half-inhibitory concentration (IC50) was greater than 10 µM.
Still for that read-out and setting: as for `CC1(C)OC(=O)C(C(O)c2ccc(F)c(F)c2)=C1c1ccc(S(C)(=O)=O)cc1` (centres unmarked) [Example 17, 3-(3,4-Difluorophenylhydroxymethyl)-5,5-dimethyl-4-(4-(methylsulfonyl)phenyl)-5H-furan-2-one], the figure is greater than 10 µM; as for `CC1(C)OC(=O)C(C(=O)c2ccc(F)c(F)c2)=C1c1ccc(S(C)(=O)=O)cc1` [Example 18, 3-(3,4-Difluorobenzoyl)-5,5-dimethyl-4-(4-(methylsulfonyl)phenyl)-5H-furan-2-one], greater than 30 µM; as for `CC1(C)OC(=O)C(C(=O)c2ccccc2)=C1c1ccc(S(C)(=O)=O)cc1` [Example 19b, 3-Benzoyl-5,5-dimethyl-4-(4-(methylsulfonyl)phenyl)-5H-furan-2-one], greater than 10 µM.
`CS(=O)(=O)c1ccc(C2=C(Oc3ccccc3)C(=O)OC23CCCC3)cc1` [Example 20, 4-(4-(Methylsulfonyl)phenyl)-3-phenoxy-1-oxaspiro[4.4]non-3-en-2-one]: the IC50 came to 0.3 µM.
Still for that read-out and setting: as for `CS(=O)(=O)c1ccc(C2=C(Sc3ccccc3)C(=O)OC23CCCC3)cc1` [Example 21, 4-(4-(Methylsulfonyl)phenyl)-3-phenylthio-1-oxaspiro[4.4]non-3-en-2-one], the figure is greater than 10 µM; as for `NS(=O)(=O)c1ccc(C2=C(Sc3ccccc3)C(=O)OC23CCCC3)cc1` [Example 22, 4-(2-Oxo-3-phenylthio-1-oxa-spiro[4,4]non-3-en-4-yl)benzene-sulfonamide], greater than 1 µM; as for `CC1(C)OC(=O)C(Cc2ccc(F)cc2)=C1c1ccc(S(C)(=O)=O)cc1` [Example 23, 3-(4-Fluorobenzyl)-5,5-dimethyl-4-(4-(methylsulfonyl)phenyl)-5H-furan-2-one], greater than 30 µM.
Regarding `CC1(C)OC(=O)C(Oc2ccccn2)=C1c1ccc(S(C)(=O)=O)cc1` [Example 26, 3-(2-pyridyloxy)-5,5-dimethyl-4-(4-(methylsulfonyl)phenyl)-5H-furan-2-one], the half-maximal inhibitory concentration (IC50) was roughly 10 µM.
The same measure, in the same setting: as for `Cc1cccc(OC2=C(c3ccc(S(C)(=O)=O)cc3)C(C)(C)OC2=O)n1` [Example 27, 3-(6-Methyl-2-pyridyloxy)-5,5-dimethyl-4-(4-(methylsulfonyl)phenyl)-5H-furan-2-one], the figure is greater than 10 µM.
